Starred links: 1 amine or outer side, 2 acyl side, 3 side chain; linkers in the order of their positions; H or OH if unused. Positions of bridges follow the written chain, without caps; N, C: chain ends. Non-standard residues stand in square brackets, D forms with d. Residues, ends and D or L forms follow the SMILES beside them. oXylylene = c1ccc(C[*:2])c(C[*:1])c1; Pra = C#CC[C@H](N)C(=O)O

Type in all cases: in vitro ADME
A short description of series [1]: Microplate fluorogenic CuAAC liposomal permeation assay (CF-N3-loaded SUVs). The conditions noted are these: for Permeation in liposomal assay: reaction with liposomal CF-N3 (in words): real-time fluorogenic CuAAC. Here is the method: DOPC or DOPG (10 mg/mL, 500 μL) were pipetted into a scintillation vial (20 mL), or DOPC (10 mg/mL, 400 μL) and POPC (10 mg/mL, 100 μL) were pipetted into a scintillation vial (20 mL). Samples were dried under argon then evaporatively dried in a vacuum desiccator (16 h). Degassed PBS buffer was combined with CF-N3 probe (1, 4, or 20 μM final) and ascorbic acid (AA, 10 mM). Lipid film was resuspended using degassed probe/AA/PBS buffer solution (1 mL), and the vial was incubated on a hot plate (15 min, 37 °C) with gentle vortexing (every 5 min). Lipid suspension was sonicated (1 min, Branson 3510 DTH ultrasonic cleaner) followed by rest (1 min), repeating 9 additional times. Liposomes were generated by extrusion (11 passages, 100 nm polycarbonate membrane, Mini-Extruder, Avanti Polar Lipids). Liposome solution was loaded into dialysis cassettes (10K MWCO, 3 mL Slide-A-Lyzer) and incubated in PBS buffer (1 L, 16 h, 4 °C). Liposome size distributions and stability were analyzed by dynamic light scattering (DLS, Zetasizer Nano ZS, Malvern Panalytical, United Kingdom).
The same protocol was followed to produce and characterize liposomes with other lipid compositions. DOPC (10 mg/mL, 400 μL), POPC (10 mg/mL, 100 μL), and cholesterol (5 mg/mL, 50/100 μL for 10%/20% mole of cholesterol, respectively) were combined, dried, and rehydrated with probe solution in scintillation vials. Brain polar lipid extract (25 mg/mL, 200 μL) or E. coli polar lipid extract (25 mg/mL, 200 μL) were dried and rehydrated with probe solution in scintillation vials.
CuSO4 (4 mg) was dissolved in DI H2O (500 μL, 50 mM), L-ascorbic acid (8.8 mg) was dissolved in PBS (500 μL, 100 mM), TBTA (2.7 mg) was dissolved in DMSO (509 μL, 10 mM), and mPEG17/mPEG8/mPEG4/PEG4s/propargyl amine/Cyc1–4 stock solutions (50 mM, with the purity > 95% by HPLC analysis) were prepared in DMSO, and CF-N3 was dissolved in DMSO (2 mM). Fluorogenic CuAAC reaction premixture was prepared by combining CuSO4 (10 μL) and TBTA (8 μL) in PBS (982 μL). Alkyne analytes were diluted (0.1 mM in CuAAC reaction premixture +2% DMSO). Free probe solution was prepared with CF-N3 (4 μM) and L-ascorbic acid (10 mM) in PBS buffer. Alkyne analyte in CuAAC premixture (5 μL) or CuAAC premixture +2% DMSO (5 μL) blank sample was combined with liposome (5 μL) or free probe solution (5 μL) in microtiter plate wells (384-well, Greiner, Thermo Scientific). Transient assay fluorescence (λex/λem = 488/530 nm) was detected using a multimode plate reader (CLARIOstar, BMG). Fluorescence fold gain was calculated by dividing the sample fluorescence by blank fluorescence. Initial velocities (V0) were obtained by linear regression analysis of the fluorescence fold gain after the initial lag period.
Assays were assembles as described above, combining liposomal probe (5 μL; 4 μ M CF-N3, 10 mM ascorbic acid, E. coli lipid SUV) with alkyne sample (5 μL) but with varying concentrations of mPEG4, mPEG8, mPEG17, and PEG4s (0.0001/0.001/0.005/0.01/0.05/0.1/0.5/1/5 mM) or Cyc1–4 (0.0001/0.001/0.005/0.01/0.05/0.1/0.5 mM). Broken liposomal V0 was obtained by combining liposomal probe (5 μL) with Triton X-100 solution (0.42 μL, 10% w/v), then adding the highest concentration sample for each alkyne (5 μL; 0.5 mM Cyc1–4 or 5 mM PEG samples). Transient assay fluorescence (λex/λem = 488/530 nm) was detected using a multimode plate reader (CLARIOstar). Each [alkyne] V0 was divided by the corresponding broken liposome maximum [alkyne] V0,broken. These normalized data were fit to a sigmoid to determine the [alkyne] at which V0/V0,broken was 50% maximum (PC50).

A short description of series [2]: Parallel artificial membrane permeability assay (PAMPA), egg lecithin in dodecane. The conditions noted are these: for Permeability class of control alkynes: control alkynes' permeabilities measured previously (ref 38) or via PAMPA (SI Table S1). Here is the method:
A modified PAMPA was used for compound permeability measurements and was performed by Pharmaron. Briefly, alkyne stock solution (1 mM in DMSO) was diluted (50 μM final in PBS, pH 7.4). The lipid solution (1.8% w/v egg lecithin in dodecane, 5 μL spotting volume) was added to each acceptor well of the multiscreen-IP filter plate. PBS (300 μL) was added to all wells of the acceptor plate, and diluted alkyne stock (300 μL) was added to the wells of the donor plate in triplicate. The plate was assembled and incubated (16 h, 37 °C). An aliquot of donor well sample (2.5 μL) was diluted in PBS (47.5 μL), and an aliquot of the acceptor well (50 μL) was transferred to a 96-well analysis plate. Internal standard (100 nM alprazolam, 200 nM caffeine, 200 nM diclofenac in 100% MeOH) was added to all samples. Samples were vortexed and centrifuged (20 min, 3220g), then analyzed by LC-MS/MS.
The effective permeability (Pe) was calculated as [drawing 1] 1 [drawing 2] 2 where VD is the donor compartment volume (0.3 mL), VA is the acceptor compartment volume (0.3 mL), A is the filter area (0.24 cm^2), and t is the time (16 h).
Background: In PAMPA a lipid-coated filter parts donor from acceptor wells.

Series [3] can be described thus: Microfluidic droplet-scale liposomal permeation assay of photocleaved control beads. The note with it: photocleaved from control beads on-chip by UV, E. coli polar lipid SUVs, 9% dextran. How it is done: Microfluidic droplet-based screening was performed in a UV-free room as previously described.[37],[47] Briefly, perfluorous oil phase (Novec 7500) with stabilizer (4% Pico-Surf) was loaded into a syringe (1 mL, BD Tuberculin, BD Medical, Franklin Lakes, NJ) fitted with blunt-end needle (30 gauge QuantX, Fisnar, Germantown, WI) and connected to the microfluidic device OIL1 inlet via Tygon microbore tubing (0.01” I.D. × 0.03” O.D. × I.D., United States Plastic Corp.). Aqueous inputs (AQ1 and AQ2, see below) were loaded into the syringes and connected to AQ inlets of the microfluidic device. Novec 7500 was loaded into syringes (10 mL) and similarly connected to the device via Tygon microbore tubing as spacing oil (OIL2) and flow focusing oil (OIL3). The incubation channel was primed with Novec 7500 by filling from the OIL2 and OIL3 inputs before initiating flows from OIL1 and AQ inlets. OIL and AQ flows were driven by syringe pumps (Legato 101, KD Scientific, Holliston, MA): AQ1 (400 nL/min) AQ2 (400 nL/min), OIL1 (500 nL/min), OIL2 (16 μ L/min), and OIL3 (6 μL/min). […]
Fluorescence data were acquired using a custom confocal laser-induced fluorescence detection system. Droplets were detected based on internal standard (cTMR) signal in PMT 2 as previously described.[36] CF-N3 probe fluorescence was detected in PMT 1. […] Once a droplet was detected, the average PMT 1 signal was calculated. […]

Setting [4] is: multiple SUV lipid formulations.

`C#CC[C@H](NC(=O)[C@H](Cc1c[nH]cn1)NC(=O)[C@H](Cc1c[nH]c2ccccc12)NC(=O)[C@@H](NC(=O)[C@H](Cc1c[nH]cn1)NC(=O)[C@H](Cc1ccccc1)NC(=O)[C@H]1CSCc2ccccc2CSC[C@@H](NC(=O)[C@@H](N)C(C)C)C(=O)N[C@@H](CC(N)=O)C(=O)N[C@@H](C)C(=O)N1)[C@@H](C)CC)C(N)=O` [DD5o] (H-V[dC]NA[dC]FHIWH[Pra]-NH2; linker 2-5 via oXylylene): the “Permeation in liposomal permeation assay (in words)” value in series [1] (DOPG vesicles, PPA and PEG4s as controls (SI Figure S5)) is reported as “permeable”.

Take `C#CCOCCOCCOCCOCCS(=O)(=O)O` [PEG4s, propargyl-PEG4-sulfonic acid]: the “Permeability class of control alkynes” value in series [2] was “impermeable”.

For `C#CCN` [PPA, propargylamine], the “Permeability class of control alkynes” value in series [2] is “permeable”. Further, in series [1] (CF-N3-loaded DOPC-POPC SUVs), the “Lag before reaching steady V0 in reaction with liposomal CF-N3” value is about 10 min and the “Permeation in liposomal assay: reaction with liposomal CF-N3 (in words)” value is listed as “reacted”. For `C#CCNC(=O)C(N)C(C)C` (stereo not drawn) [PPA–V, valine-N-propargylamide], the “Permeation in droplet-scale liposomal permeation assay (in words)” value in series [3] is given as “permeable”. Regarding `C#CCOCCOCCOCCOC` [mPEG4, m-PEG4-propargyl], in series [1] (setting [4]), the “Permeation in liposomal permeation assay (in words)” value was “readily permeated”. The same measure, in the same setting: the value for `C#CCOCCOCCOCCOCCOCCOCCOCCOC` [mPEG8, m-PEG8-propargyl] was “readily permeated”. Consider `C#CCOCCOCCOCCOCCOCCOCCOCCOCCOCCOCCOCCOCCOCCOCCOCCOCCOC` [mPEG17, propargyl-PEG17-methane], for which the “Permeability class of control alkynes” value in series [2] is on record as “impermeable”. Moreover, in series [2] (egg lecithin PAMPA, 50 μM, PBS pH 7.4, 16 h, 37 °C, read-out: PAMPA Pe), the Papp at 16 h, 50 μM was over 0.004 ×10⁻⁶ cm/s. The “Permeation in liposomal assay: reaction with liposomal CF-N3 (in words)” value in series [1] (CF-N3-loaded DOPC-POPC SUVs) is “undetectable”. Also, in series [1] (setting [4]), the “Permeation in liposomal permeation assay (in words)” value is “largely impermeable”.
